Experimental data reported in US7858635B2 (priority 2005, dated 2010).
Like-named read-outs stand apart in the source and are kept apart here.

Tests used:
[1] = molecular target: T1, M4 muscarinic receptor (Homo sapiens, UniProt P08173); experiment: Functional mobilization of intracellular calcium (FLIPR, Fluo-3), M4-CHO cells; type: cell-based; conditions: for Emax: 100% efficacy is the maximum response obtained with the Carbachol control, read-out: M4 Efficacy
T1 construct: expressed in transfected cells; host or cells: CHO cells (M4-CHO, under puromycin, zeocin and blasticidin selection)
T1 sequence (P08173 1-479): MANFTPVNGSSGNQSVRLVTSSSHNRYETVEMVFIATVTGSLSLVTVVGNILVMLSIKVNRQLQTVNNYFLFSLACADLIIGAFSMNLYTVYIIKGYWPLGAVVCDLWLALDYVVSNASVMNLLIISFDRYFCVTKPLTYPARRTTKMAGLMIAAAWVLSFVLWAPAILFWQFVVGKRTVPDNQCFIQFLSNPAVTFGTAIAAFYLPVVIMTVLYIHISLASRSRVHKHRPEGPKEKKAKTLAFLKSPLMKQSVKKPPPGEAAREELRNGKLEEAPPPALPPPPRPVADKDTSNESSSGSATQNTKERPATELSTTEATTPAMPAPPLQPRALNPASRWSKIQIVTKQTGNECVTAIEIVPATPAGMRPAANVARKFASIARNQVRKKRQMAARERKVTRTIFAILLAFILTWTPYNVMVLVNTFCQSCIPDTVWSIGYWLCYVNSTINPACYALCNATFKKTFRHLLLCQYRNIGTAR
Outline: (§1)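 Fluo-3 read-out, ex 488/em 540 nm, 60 sec on FLIPR 3. For agonist mode, compound added directly; for inhibition, 15 min compound pre-incubation before carbachol at EC80 (added as a 3× solution), or co-application. Buffer pH 7.4 with 1 mM probenecid; DMSO 0.5%.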

[2] = molecular target: T2, M1 muscarinic receptor (Homo sapiens, UniProt P11229); experiment: Functional mobilization of intracellular calcium (FLIPR, Fluo-3), M1-CHO cells; type: cell-based; conditions: for Emax: 100% efficacy is the maximum response obtained with the Carbachol control, read-out: M1 Efficacy
T2 construct: expressed in transfected cells; host or cells: CHO cells (M1-CHO, under zeocin and G418 selection)
T2 sequence (P11229 1-460): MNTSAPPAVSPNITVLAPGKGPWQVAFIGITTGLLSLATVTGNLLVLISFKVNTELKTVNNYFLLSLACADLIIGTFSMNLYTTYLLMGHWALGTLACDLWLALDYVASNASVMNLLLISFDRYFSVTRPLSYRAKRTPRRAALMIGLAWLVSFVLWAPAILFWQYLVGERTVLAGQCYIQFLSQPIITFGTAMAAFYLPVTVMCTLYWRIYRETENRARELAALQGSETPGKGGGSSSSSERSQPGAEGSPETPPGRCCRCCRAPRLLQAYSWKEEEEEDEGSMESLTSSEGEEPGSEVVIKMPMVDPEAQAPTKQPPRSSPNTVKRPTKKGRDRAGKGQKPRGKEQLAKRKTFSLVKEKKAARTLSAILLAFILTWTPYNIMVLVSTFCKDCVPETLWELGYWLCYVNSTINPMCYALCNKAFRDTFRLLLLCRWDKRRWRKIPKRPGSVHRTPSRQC
Outline: as §1

[3] = compound nos. 1-454, M4-CHO cells, calcium mobilization
[4] = compound nos. 1-454, M1-CHO cells, calcium mobilization

SMILES | M4 Activity ([1]; compound nos. 1-454) | Emax ([1]; compound nos. 1-454) | M1 Activity ([2]; compound nos. 1-454) | Emax ([2]; compound nos. 1-454) | M4 Activity [1, 3] | M1 Activity [2, 4] | Emax ([1]; compound nos. 455-509) | M4 Activity ([1]; compounds 455-509) | Emax ([2]; compound nos. 455-509) | M1 Activity ([2]; compounds 455-509)
CCOC(=O)N1C2CCC1CC(N1CCC3(CC1)CN(C(C)=O)c1ccc(Cl)cc13)C2 (stereo not shown) [compound 417] | + (activity was measured to be greater than or equal to 4.0 μM) | < 55% | ++ (activity was measured to be between 0.7 μM and 3.0 μM) | < 65% |  |  |  |  |  | 
CC(=O)NC1CC2(CCN(C[C@@H]3C[C@H]4C=C[C@H]3C4)CC2)c2ccccc21 (stereo partly shown) [compound 408] | +++ (activity was measured to be less than or equal to 0.1 μM) | 55 to 70% | +++ (activity was measured to be less than or equal to 0.7 μM) | 65 to 85% |  |  |  |  |  | 
CC(=O)N1CC2(CCN(C3CCC4(CC3)CC(C)=NO4)CC2)c2cc(F)ccc21 (stereo not shown) [compound 433] | ++ (activity was measured to be between 0.1 μM and 4.0 μM) | < 55% | ++ (activity was measured to be between 0.7 μM and 3.0 μM) | 65 to 85% |  |  |  |  |  | 
CCOC(=O)N1CCC(CN2CCC3(CCc4ccccc43)CC2)CC1 [compound 414] | + (activity was measured to be greater than or equal to 4.0 μM) | < 55% | + (activity was measured to be greater than or equal to 3.0 μM) | < 65% |  |  |  |  |  | 
CCOC(=O)N[C@@H]1CC2(CCN(C[C@H]3C[C@H]4CC[C@H]3C4)CC2)c2ccccc21 [compound 275] |  | > 70% |  | 65 to 85% | ++ (activity was measured to be between 0.1 μM and 4.0 μM) | +++ (activity was measured to be less than or equal to 0.7 μM) |  |  |  | 
Fc1ccc2c(c1)C1(CCN(C3CCOCC3)CC1)CN2 [compound 299] |  | 55 to 70% |  | 65 to 85% | + (activity was measured to be greater than or equal to 4.0 μM) | + (activity was measured to be greater than or equal to 3.0 μM) |  |  |  | 
CCOC(=O)N1C2CCC1CC(N1CCC3(CC1)CN(S(C)(=O)=O)c1ccc(F)cc13)C2 (stereo not shown) [compound 103] |  | < 55% |  | 65 to 85% | ++ (activity was measured to be between 0.1 μM and 4.0 μM) | +++ (activity was measured to be less than or equal to 0.7 μM) |  |  |  | 
CCOC(=O)N1CCC(N2CCC3(CC2)CN(C(C)=O)c2ccc(-c4ccccc4C)cc23)CC1 [compound 78] |  | < 55% |  | 65 to 85% | ++ (activity was measured to be between 0.1 μM and 4.0 μM) | +++ (activity was measured to be less than or equal to 0.7 μM) |  |  |  | 
CC(=O)N1CC2(CCN(C3CCN(C(=O)OC(C)C)CC3)CC2)c2cc(C)ccc21 [compound 380] | ++ (activity was measured to be between 0.1 μM and 4.0 μM) | 55 to 70% | +++ (activity was measured to be less than or equal to 0.7 μM) | 65 to 85% |  |  |  |  |  | 
CCOC(=O)N1C2CCC1CC(CN1CCC3(CC1)CNc1ccc(F)cc13)C2 (stereo not shown) [compound 368] |  | < 55% |  | < 65% | ++ (activity was measured to be between 0.1 μM and 4.0 μM) | +++ (activity was measured to be less than or equal to 0.7 μM) |  |  |  | 
CC(=O)N1CC2(CCN(C3CCN(c4nccs4)CC3)CC2)c2ccccc21 [compound 491] |  |  |  |  |  |  | < 25% | ++ (activity was measured to be between 2.0 μM and 5.0 μM) | < 25% | + (activity was measured to be greater than or equal to 5.0 μM)
CN(C)C(=O)N1CC2(CCN(C3CCN(c4ncns4)CC3)CC2)c2ccccc21 [compound 506] |  |  |  |  |  |  | 25 to 100% | ++ (activity was measured to be between 2.0 μM and 5.0 μM) | > 100% | ++ (activity was measured to be between 2.0 μM and 5.0 μM)
CN(C)C(=O)N1CC2(CCN(C3CCN(c4ncccn4)CC3)CC2)c2cc(F)ccc21 [compound 445] | +++ (activity was measured to be less than or equal to 0.1 μM) | 55 to 70% | ++ (activity was measured to be between 0.7 μM and 3.0 μM) | 65 to 85% |  |  |  |  |  | 
CN(C)C(=O)N1CC2(CCN(C3CCN(c4cnc5ccccc5n4)CC3)CC2)c2ccccc21 [compound 497] |  |  |  |  |  |  | 25 to 100% | ++ (activity was measured to be between 2.0 μM and 5.0 μM) | > 100% | +++ (activity was measured to be less than or equal to 2.0 μM)
COc1cccc(N2CCC(N3CCC4(CC3)CN(C(=O)N(C)C)c3ccc(F)cc34)CC2)c1 [compound 441] | +++ (activity was measured to be less than or equal to 0.1 μM) | 55 to 70% | ++ (activity was measured to be between 0.7 μM and 3.0 μM) | 65 to 85% |  |  |  |  |  | 
COC(=O)N1C2CCC1CC(N1CCC3(CC1)CN(C(=O)c1cc(C)n(C)n1)c1ccc(F)cc13)C2 (stereo not shown) [compound 44] |  | > 70% |  | 65 to 85% | ++ (activity was measured to be between 0.1 μM and 4.0 μM) | +++ (activity was measured to be less than or equal to 0.7 μM) |  |  |  | 
C#CCCOC(=O)N1CCC(N2CCC3(CC2)CN(C(C)=O)c2ccc(F)cc23)CC1 [compound 62] |  | 55 to 70% |  | < 65% | ++ (activity was measured to be between 0.1 μM and 4.0 μM) | +++ (activity was measured to be less than or equal to 0.7 μM) |  |  |  | 
O=C(OCC(F)F)N1C2CCC1CC(N1CCC3(CC1)COc1ccc(F)cc13)C2 (stereo not shown) [compound 186] |  | 55 to 70% |  | > 85% | + (activity was measured to be greater than or equal to 4.0 μM) | +++ (activity was measured to be less than or equal to 0.7 μM) |  |  |  | 
CC(=O)N[C@@H]1CC2(CCN([C@H]3C[C@@H]4CC[C@H]3C4)CC2)c2ccccc21 [compound 171] |  | 55 to 70% |  | > 85% | + (activity was measured to be greater than or equal to 4.0 μM) | ++ (activity was measured to be between 0.7 μM and 3.0 μM) |  |  |  | 
CN(C)C(=O)N1CC2(CCN(C3CCN(c4cnc5ccccc5n4)CC3)CC2)c2cc(F)ccc21 [compound 460] |  |  |  |  |  |  | 25 to 100% | ++ (activity was measured to be between 2.0 μM and 5.0 μM) | > 100% | +++ (activity was measured to be less than or equal to 2.0 μM)
CC(C)OC(=O)N1C2CCC1CC(N1CCC3(CC1)CN(C(=O)N(C)C)c1ccc(F)cc13)C2 (stereo not shown) [compound 108] |  | < 55% |  | 65 to 85% | ++ (activity was measured to be between 0.1 μM and 4.0 μM) | +++ (activity was measured to be less than or equal to 0.7 μM) |  |  |  | 
Clc1ccc2c(c1)C1(CCO2)CCN(CC2CC3C=C[C@H]2C3)CC1 (stereo in doubt) [compound 64, 1′-((1R,2R,4R)-bicyclo[2.2.1]hept-5-en-2-ylmethyl)-6-chlorospiro[chroman-4,4′-piperidine]] |  | < 55% |  | < 65% | ++ (activity was measured to be between 0.1 μM and 4.0 μM) | +++ (activity was measured to be less than or equal to 0.7 μM) |  |  |  | 
CC(=O)N1CC2(CCN(C3CCCCC3)CC2)c2cc(F)ccc21 [compound 387] | ++ (activity was measured to be between 0.1 μM and 4.0 μM) | < 55% | +++ (activity was measured to be less than or equal to 0.7 μM) | 65 to 85% |  |  |  |  |  | 
CCc1nsc(N2CCC(N3CCC4(CC3)C[C@H](N(CCOC)C(C)=O)c3ccccc34)CC2)n1 [compound 505] |  |  |  |  |  |  | 25 to 100% | ++ (activity was measured to be between 2.0 μM and 5.0 μM) | > 100% | +++ (activity was measured to be less than or equal to 2.0 μM)
CN(C)C(=O)N1CC2(CCN(C3CCN(c4nncs4)CC3)CC2)c2ccccc21 [compound 495] |  |  |  |  |  |  | 25 to 100% | + (activity was measured to be greater than or equal to 5.0 μM) | 25 to 100% | + (activity was measured to be greater than or equal to 5.0 μM)
